Laboratory results from US20240308992A1 (Biopolar Youtang(Guangdong) Pharmaceutical Co., Ltd., priority 2021, published 2024).
Structures can show the parent of a compound that is named as a salt.

target: T1, Drak2 (Homo sapiens, UniProt O94768); experiment: Drak2 activity test, ADP-Glo kinase assay (Promega); format: biochemical; conditions: inhibition of Drak2 kinase activity, 2 h room temperature, activity range classes, read-out: IC50_Drak2
T1 sequence (O94768 1-372): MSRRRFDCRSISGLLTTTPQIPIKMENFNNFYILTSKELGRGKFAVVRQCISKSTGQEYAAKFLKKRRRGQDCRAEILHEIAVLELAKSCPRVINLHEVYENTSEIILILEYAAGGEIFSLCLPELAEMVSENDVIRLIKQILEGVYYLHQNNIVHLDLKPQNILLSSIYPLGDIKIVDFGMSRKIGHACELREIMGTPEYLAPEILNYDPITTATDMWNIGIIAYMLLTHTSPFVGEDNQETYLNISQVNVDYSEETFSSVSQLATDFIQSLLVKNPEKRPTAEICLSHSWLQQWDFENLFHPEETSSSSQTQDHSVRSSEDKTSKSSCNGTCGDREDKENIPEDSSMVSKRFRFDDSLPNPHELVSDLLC

SMILES | IC50 [nM]
COc1cc(-c2cncc(-c3cc(OCC[C@H](C)CN)cs3)n2)ccc1C(=O)N(C)C1CCN(C)CC1 [Example G1, (S)-4-(6-(4-(4-amino-3-methylbutoxy)thiophen-2-yl)pyrazin-2-yl)-2-methoxy-N-methyl-N-(1-methylpiperidin-4-yl) benzamide] | 101 to 1000
COc1cc(-c2cncc(-c3cc(NC(=O)CC4CCC4)cs3)n2)ccc1OCC(=O)N1CCN(C2CCN(C)CC2)CC1 [Example 192, 2-Cyclobutyl-N-(5-{6-[3-methoxy-4-({2-[4-(1-methylhexahydropyridin-4-yl)piperazin-1-yl]-2-oxoethyl}oxy)phenyl]pyrazin-2-yl}thiophen-3-yl) acetamide] | 11 to 100
CCCCC(=O)Nc1csc(-c2cncc(-c3cccc(O)c3)n2)c1 [Example 197, N-(5-(6-(3-hydroxyphenyl)pyrazin-2-yl)thiophen-3-yl) pentanamide] | 11 to 100
COc1cc(-c2cncc(-c3cc(NC(=O)CC4CC(C(C)=O)C4(C)C)cs3)n2)ccc1C(=O)N(C)C1CCN(C)CC1 (stereo not drawn) [Example B87, 4-(6-(4-(2-(3-acetyl-2,2-dimethylcyclobutyl)acetamido)thiophen-2-yl)pyrazin-2-yl)-2-methoxy-N-methyl-N-(1-methylpiperidin-4-yl)benzamide] | 101 to 1000
CCCCC(=O)Nc1csc(-c2cncc(-c3ccc(OC)c(OC)c3)c2C#N)c1 [Example C4, N-(5-(4-cyano-5-(3,4-dimethoxyphenyl)pyridin-3-yl)thiophen-3-yl)pentanamide] | 1000 to 10000
CCCCC(=O)Nc1csc(-c2cncc(-c3ccc(F)c(O)c3)n2)c1 [Example A41, N-(5-(6-(4-fluoro-3-hydroxyphenyl)pyrazin-2-yl)thiophen-3-yl)pentanamide] | 101 to 1000
Cn1ncc2ccc(-c3cncc(-c4cc(NC(=O)CC5CCC5)cs4)n3)cc21 [Example A49, 2-cyclobutyl-N-(5-(6-(1-methyl-1H-indazol-6-yl)pyrazin-2-yl)thiophen-3-yl)acetamide] | 11 to 100
CCCCC(=O)Nc1csc(-c2cncc(-c3ccc(C(=O)N(C)C4CCN(CC(F)(F)F)CC4)c(OC)c3)n2)c1 [Example B70, 2-methoxy-N-methyl-4-(6-(4-pentanamidothiophen-2-yl)pyrazin-2-yl)-N-(1-(2,2,2-trifluoroethyl)piperidin-4-yl)benzamide] | 101 to 1000
CCCCC(=O)Nc1csc(-c2cncc(-c3ccc(OCCN4CCS(=O)(=O)CC4)c(OC)c3)n2)c1 [Example 180, N-{5-[6-(4-{[2-(1,1-dioxo-1 λ^6-1,4-thiomorpholin-4-yl)ethyl]oxy}-3-methoxyphenyl)pyrazin-2-yl]thiophen-3-yl} pentanamide] | 11 to 100
O=C(CC1CCC1)Nc1csc(-c2cncc(-c3ccnc4[nH]ccc34)n2)c1 [Example 209, N-(5-(6-(1H-pyrrolo [2,3-b]pyridin-4-yl)pyrazin-2-yl)thiophen-3-yl)-2-cyclobutylacetamide] | 11 to 100
COc1cc(-c2cncc(-c3cc(NC(=O)CC4CCC4)cs3)n2)ccc1OCCc1cnccn1 [Example 174, 2-cyclobutyl-N-{5-[6-(3-methoxy-4-{[2-(pyrazin-2-yl)ethyl]oxy}phenyl)pyrazin-2-yl]thiophen-3-yl} acetamide] | 11 to 100
COc1cc(C(N)=O)c(-c2cncc(-c3cc(NC(=O)C4CCC4)cs3)n2)cc1OC [Example A25, 2-(6-(4-(cyclobutanecarboxamido)thiophen-2-yl)pyrazin-2-yl)-4,5-dimethoxybenzamide] | > 10000
CC(C)n1ccc2c(-c3cncc(-c4cc(NC(=O)CC5CCC5)cs4)n3)ccnc21 [Example 210, 2-Cyclobutyl-N-(5-{6-[1-(propyl-2-yl)pyrrolo [2,3-b]pyridin-4-yl]pyrazin-2-yl}thiophen-3-yl) acetamide] | 101 to 1000
CCCCC(=O)Nc1csc(-c2cncc(-c3cccc(C#N)c3)n2)c1 [Example 198, N-{5-[6-(3-cyanophenyl)pyrazin-2-yl]thiophen-3-yl} pentanamide] | 101 to 1000
COc1ccc(-c2cncc(-c3cc(NC(=O)C4CCC4)cs3)c2C(N)=O)cc1OC [Example C1, 3-(4-(cyclobutanecarboxamido)thiophen-2-yl)-5-(3,4-dimethoxyphenyl)isonicotinamide] | > 10000

Now from value to compound:

IC50 [nM] | SMILES
101 to 1000 | CCCCC(=O)Nc1csc(-c2cncc(-c3ccc(C(=O)Nc4ncc[nH]4)c(OC)c3)n2)c1 [Example B5, 2-methoxy-4-(6-(4-pentanamidothiophen-2-yl)pyrazin-2-yl)-N-(1H-imidazol-2-yl) benzamide]
101 to 1000 | CCCCC(=O)Nc1csc(-c2cncc(-c3ccc(S(C)(=O)=O)c(OC)c3)n2)c1 [Example A42, N-(5-(6-(3-methoxy-4-(methylsulfonyl)phenyl)pyrazin-2-yl)thiophen-3-yl)pentanamide]
1000 to 10000 | COc1ccc(-c2cncc(-c3cc(N)cs3)n2)cc1OC [Example A2, 5-(6-(3,4-dimethoxyphenyl)pyrazin-2-yl)thiophen-3-amine hydrochloride]
11 to 100 | COc1cc(-c2cncc(-c3cc(NC(=O)CC4CC4)cs3)n2)ccc1S(C)(=O)=O [Example A43, 2-cyclopropyl-N-(5-(6-(3-methoxy-4-(methylsulfonyl)phenyl)pyrazin-2-yl)thiophen-3-yl)acetamide]
11 to 100 | COc1cc(-c2cncc(-c3cc(NC(=O)CC4CCC4)cs3)n2)ccc1C(=O)N1CCN(C)CC1 [Example B39, 2-cyclobutyl-N-(5-(6-(3-methoxy-4-(4-methylpiperazine-1-carbonyl)phenyl)pyrazin-2-yl)thiophen-3-yl)acetamide]
101 to 1000 | COc1cc(-c2cncc(-c3cc(NC(C)=O)cs3)n2)ccc1C(=O)Nc1nnn[nH]1 [Example B10, 2-methoxy-4-(6-(4-acetamidothiophen-2-yl)pyrazin-2-yl)-N-(1H-tetrazol-5-yl)benzamide]
1000 to 10000 | CCCCC(=O)Nc1csc(-c2cncc(-c3ccc(Cl)c(OC)c3)n2)c1 [Example A16, N-(5-(6-(4-chloro-3-methoxyphenyl)pyrazin-2-yl)thiophen-3-yl)pentanamide]
101 to 1000 | COc1cc(-c2cncc(-c3cc(NC(=O)C4CCC4)cs3)n2)ccc1Cl [Example A15, N-(5-(6-(4-chloro-3-methoxyphenyl)pyrazin-2-yl)thiophen-3-yl)cyclobutanecarboxamide]
1000 to 10000 | CCCCC(=O)Nc1csc(-c2cncc(-c3cc(F)c(O)c(OC)c3)n2)c1 [Example A38, N-(5-(6-(3-fluoro-4-hydroxy-5-methoxyphenyl)pyrazin-2-yl)thiophen-3-yl)pentanamide]
101 to 1000 | COc1ccc(-c2cncc(-c3cc(NC(=O)C(C)(C)C)cs3)n2)cc1OC [Example A5, N-(5-(6-(3,4-dimethoxyphenyl)pyrazin-2-yl)thiophen-3-yl)pivalamide]
101 to 1000 | COc1ccc(-c2cncc(-c3cc(NC(=O)C4CCC4)cs3)n2)cc1Cl [Example A17, N-(5-(6-(3-chloro-4-methoxyphenyl)pyrazin-2-yl)thiophen-3-yl)cyclobutanecarboxamide]
11 to 100 | CCCCC(=O)Nc1csc(-c2cncc(-c3ccc(C(=O)N(C)CCN(C)C)c(OC)c3)n2)c1 [Example B55, N-(2-(dimethylamino)ethyl)-2-methoxy-N-methyl-4-(6-(4-pentanamidothiophen-2-yl)pyrazin-2-yl)benzamide]
< 10 | CCCCC(=O)Nc1csc(-c2cncc(-c3ccc(C(=O)N(C)C4CCN(C)CC4)c(OC)c3)n2)c1 [Example B59, 2-methoxy-N-methyl-N-(1-methylpiperidin-4-yl)-4-(6-(4-pentanamidothiophen-2-yl)pyrazin-2-yl)benzamide]
101 to 1000 | CCCCC(=O)Nc1csc(-c2cncc(-c3ccc(C(=O)OC)c(OC)c3)n2)c1 [Example B1, Methyl 2-methoxy-4-(6-(4-pentanamidothiophen-2-yl)pyrazin-2-yl)benzoate]
11 to 100 | CCCCC(=O)Nc1csc(-c2cncc(-c3ccc(C(=O)Nc4nnco4)c(OC)c3)n2)c1 [Example B23, 2-methoxy-4-(6-(4-pentanamidothiophen-2-yl)pyrazin-2-yl)-N-(1,3,4-oxadiazol-2-yl)benzamide]
< 10 | CCCCC(=O)Nc1csc(-c2cncc(-c3ccc(N)c(OC)c3)n2)c1 [Example 196, N-{5-[6-(4-amino-3-methoxyphenyl)pyrazin-2-yl]thiophen-3-yl}pentanamide]
101 to 1000 | CCCCC(=O)Nc1csc(-c2cncc(-c3ccc(OC)c(OC)c3)n2)c1 [Example A1, N-(5-(6-(3,4-dimethoxyphenyl)pyrazin-2-yl)thiophen-3-yl)pentanamide]
101 to 1000 | CCCCC(=O)Nc1csc(-c2cncc(-c3ccc(OC)c(S(C)(=O)=O)c3)n2)c1 [Example 221]
< 10 | COc1cc(-c2cncc(-c3cc(NC(=O)CC4CCC4)cs3)n2)ccc1C(=O)N(C)C1CCN(C)CC1 [Example B63, 4-(6-(4-(2-cyclobutylacetamido)thiophen-2-yl)pyrazin-2-yl)-2-methoxy-N-methyl-N-(1-methylpiperidin-4-yl)benzamide]
11 to 100 | COc1cc(-c2cncc(-c3cc(NC(=O)CC4CCCC4)cs3)n2)ccc1C(=O)N(C)CCN(C)C [Example B58, 4-(6-(4-(2-cyclopentylacetamido)thiophen-2-yl)pyrazin-2-yl)-N-(2-(dimethylamino)ethyl)-2-methoxy-N-methylbenzamide]
11 to 100 | COc1cc(-c2cncc(-c3cc(NC(=O)CC4CC4)cs3)n2)ccc1C(=O)N(C)OC [Example B79, 4-(6-(4-(2-cyclopropylacetamido)thiophen-2-yl)pyrazin-2-yl)-N,2-dimethoxy-N-methylbenzamide]
